Data set [1] relates to Laodelphax striatellus imagoes. Description: whole plant or invertebrate. On the procedure:
Each original medicine was dissolved in DMF and formulated into a 10000 mg/L solution for later use.
Test insect source: The Laodelphax striatellus imagoes were collected in the rice fields of Jiaxing, Zhejiang, and were raised indoors with rice seedlings.
The soaking seedling method was used in this test. The test agents were diluted with tap water into five series of concentrations on the basis of pre-test to be used as test solutions. Specifically, lambda-cyhalothrin and imidacloprid were diluted to 5 mg/L, 10 mg/L, 25 mg/L, 50 mg/L and 100 mg/L; abamectin was diluted to 0.25 mg/L, 0.5 Mg/L, 1.0 mg/L, 2.5 mg/L and 5.0 mg/L; tenvermectin A was diluted to 0.05 mg/L, 0.10 mg/L, 0.25 mg/L, 0.5 mg/L and 1.0 mg/L. Rice seedlings that are sown indoors for about 25 days and have no rice planthopper eggs were taken, a few rice roots were left, the seedlings were soaked in pre-formed solution for 30 seconds then they were taken out and dried, and were put into a 3 cm×20 cm test tube. There was a little water at the bottom of the tube. 2-3 rice seedlings per tube, three repetitions per treatment, and the one treated with water was used as a control. Each tube receives 40-50 heads of Laodelphax striatellus, and the tubes were sealed with black cloth and were placed in a worm room under a temperature of (26±1) ° C. After 72 hours of treatment, the number of dead insects was checked. […] Experimental data statistics and analysis were performed using spss 19 software.
The relative toxicity index of the agent having the largest LC50 was set to be 1, and the relative toxicity index of each agent was determined by dividing the maximum LC50 by the LC50 value of each agent.

The subject of the next data set is Bemisia tabaci imagoes. As to the kind of experiment: Indoor toxicity against Bemisia tabaci imagoes, liquid membrane impregnation method of blades. It is filed as in vivo. As for the experimental part:
The liquid membrane impregnation method of blades was used. […] One tomato leaf was placed in each culture dish. Three repetitions per treatment, a leaf was soaked with water, dried, and then was placed in a culture dish to be used as a control. The Bemisia tabaci imagoes were gently patted into the culture dish, about 30 to 40 imagoes in each dish. The dishes were sealed with plastic wrap, several small holes were made on the plastic wrap to facilitate ventilation. After 24 hours, the death of Bemisia tabaci imagoes was checked under a binocular microscope (the anatomical needle was used to gently touch the Bemisia tabaci imagoes, and the motionless ones were regarded to be dead). Experimental data statistics and analysis were performed with spss 19 software.

Data set [2] concerns Coptotermes formosanus Shiraki. Description: Indoor toxicity against Coptotermes formosanus Shiraki, topical drop with microinjector. Format: in vivo. On the procedure: Specifically, abamectin was diluted to 0.01 mg/L, 0.025 mg/L, 0.05 mg/L, 0.10 mg/L and 0.25 mg/L; tenvermectin A and tenvermectin B were diluted to 0.001 mg/L, 0.0025 mg/L, 0.005 mg/L, 0.01 mg/L and 0.025 mg/L. The termites to be tested were placed in culture dishes with a diameter of 15 cm, and 20 worker ants were placed in each dish. During the test, a microinjector was used to drop 1 μI of the solution to the thorax and abdome of each termite for a total of 3 repetitions. One fungus comb was placed in each dish for termites to inhabit and a wet absorbent cotton ball was placed to moisturize. After completing dropping the solution, the culture dish was placed in a chamber under a constant temperature of 18±1° C. and a constant humidity and was cultivated in dark conditions, the death conditions were observed 24 hours and 48 hours after dropping the solution respectively. A writing brush was used to touch the various parts of the bodies of the termites and the termites that are completely immobile were judged to be dead.

The test system of a further data set is zebrafish. Description: Toxicity test on zebrafish, semi-static method. It is filed as in vivo, Brachydanio rerio. As for the experimental part:
Test fish and water: zebrafish (Brachydanio rerio) were purchased from Zhejiang Academy of Agricultural Sciences and were of uniform size with an average body length of 2-3 cm and an average body weight of 0.3 g. They were domesticated for 7 days indoors before the test. The natural mortality rate was zero. Feeding was stopped 1 day before the test and the fish were not fed during the test. The test water was tap water after removing residual chlorine by exposure to the sun for more than 24 hours, and the pH was 6.8.
The sample was formulated into 50 mg/ml mother liquor with DMF.
Method: Semi-static method. Three level differences were set for each sample:
0.5 ppm, 1.0 ppm and 2.0 ppm, and three sets of parallels were set for each level difference, 10 zebrafish were raised for each group, and blank controls (one group without agents and one group with only solvent) were set. The corresponding volume of mother liquor was taken according to the concentration as required for each sample, and the volume of each sample was adjusted to 150 μl with DMF, and then each sample was added to the test group (containing 1.6 L of water). The room temperature was controlled at 22±2° C. for 96 hours, and the water was changed every 24 hours and the samples were re-added. The fish mortality rate was recorded for the first 8 hours and at 24, 48, 72, and 96 hours, and the dead fish were removed in time. Finally, the agents were divided into three grades according to the values of LC50: low-toxic pesticides with a LC50>10 ppm, middle-toxic pesticides with a LC50 of 1.0-10 ppm, and high-toxic pesticides with a LC50<1.0 ppm.

In a further data set the test system is cabbage Phyllotreta. As to the kind of experiment: Field efficacy test against cabbage Phyllotreta. It is filed as in vivo. The conditions noted are these: 1 day, 3 days and 7 days after medication. As for the experimental part: In the laboratory, the above-mentioned original medicines were respectively formulated into the following formulations for later use: 1.8% abamectin emulsifiable concentrate, 1.8% tenvermectin A emulsifiable concentrate, 1.8% tenvermectin B emulsifiable concentrate, 5% imidacloprid emulsifiable concentrate, 5% acetamiprid emulsifiable concentrate, 2.5% lambda-cyhalothrin emulsifiable concentrate.
The test was conducted in Linhai City, and the test crop was cabbage, and the object to be controlled was Phyllotreta.
The experiment consisted of 7 treatments, 3 replicates per treatment, 21 sections in total. The sections were randomly arranged, the area for each section was 66.7 m^2. A type of knapsack manual sprayer was used to spray once, the amount of each section was calculated according to the amount of 50 ml/mu, and the leaves were sprayed evenly. Each treatment was isolated from each other to avoid mutual interference. A blank control was set, and the blank control was sprayed with water. The population base of insects was investigated before medication, and the number of live insects was investigated 1 day, 3 days, and 7 days after medication, and a total of 4 investigations were conducted. 20 plants were randomly investigated per section. The rate of reduction of population was calculated and the control effect was corrected. No other pesticides were used during the test. […]

≈ marks a conversion by molar mass, not a printed value.

For orientation: LC50 means the concentration that kills 50% of the test population. High values mean lower toxicity, low ones greater toxicity. For `CO[C@H]1CC(OC2[C@H](C)OC(OC3/C(C)=C/C[C@@H]4C[C@@H](C[C@]5(CCC(C)[C@@H](C)O5)O4)OC(=O)[C@@H]4C=C(C)[C@@H](O)[C@H]5OC/C(=C\C=C\C3C)[C@]54O)C[C@@H]2OC)O[C@@H](C)C1O` (stereo partly shown) [Tenvermectin A, tenvermectin A], the median lethal concentration (LC50) in data set [1] (in vivo) turned out to be 0.296 µg/mL (≈ 0.355 µM); in the data set with Bemisia tabaci imagoes (Bemisia tabaci imagoes, soaked tomato leaves, death checked after 24 hours), 0.023 µg/mL (≈ 0.0276 µM); in data set [2] (in vivo), 0.0086 µg/mL (≈ 0.0103 µM). Further, the Relative toxicity was determined as 107.490 in data set [1] (maximum LC50 divided by LC50 of each agent, imidacloprid = 1); 110.478 in the data set with Bemisia tabaci imagoes (maximum LC50 divided by LC50 of each agent, acetamiprid = 1); 4.77 in data set [2] (maximum LC50 divided by LC50 of each agent, abamectin = 1). Besides, the “Surviving condition (survival rate %)” value in the data set with zebrafish (0.5 ppm, 8 h) stood at 100%; with zebrafish (0.5 ppm, 24 h), 100%; with zebrafish (0.5 ppm, 48 h), 100%; with zebrafish (0.5 ppm, 72 h), 100%; with zebrafish (0.5 ppm, 96 h), 100%; with zebrafish (1.0 ppm, 8 h), 100%. In addition, the “Surviving condition (survival rate %)” value is given as 100% in the data set with zebrafish (1.0 ppm, 24 h); 100% in the data set on zebrafish (1.0 ppm, 48 h); 100% in the data set on zebrafish (1.0 ppm, 72 h); 100% with zebrafish (1.0 ppm, 96 h); 100% with zebrafish (2.0 ppm, 8 h); 100% with zebrafish (2.0 ppm, 24 h). The “Surviving condition (survival rate %)” value was found to be 100% in the data set with zebrafish (2.0 ppm, 48 h); 93% in the data set on zebrafish (2.0 ppm, 72 h); 80% in the data set on zebrafish (2.0 ppm, 96 h). Further, in the data set on cabbage Phyllotreta, the “control effect on cabbage Phyllotreta (in words)” value was “no control effect”.

The record behind these values is patent US20190116795A1, “USE OF TENVERMECTIN IN CONTROL OF HARMFUL INSECTS IN AGRICULTURAL AND FOREST CROPS” (ZHEJIANG HISUN PHARMACEUTICAL CO., LTD., priority 2016, published 2019).
